Values of other authors as cited in patent US9562052B2, “Bicyclicpyridine derivatives” (Hoffmann-La Roche Inc., priority 2012, dated 2017).

For `CCc1c(-c2ccccc2)c(-c2ccccc2)nn1-c1ccccc1-c1cccc(OCC(=O)O)c1` [BMS309403], the “body weight and energy consumption” value (ob/ob mice) is given as “no change”, the hepatic steatosis (ob/ob mice) is given as “reduction” and the “glucose uptake in muscle and adipose” value (ob/ob mice; clamp study) is given as “increased”. The hepatic glucose production (ob/ob mice; clamp study) was “reduction” and the atherosclerotic plaques formation (ApoE KO mice) was “decrease”.
